Nc1ccc(Cc2ccc(N)cc2)cc1
solubility (mole fraction)
Settings | 293.15 K | 298.15 K | 303.15 K | 308.15 K | 313.15 K | 318.15 K | 323.15 K | 328.15 K | 333.15 K
in benzene | 0.0207 | 0.0299 | 0.039 | 0.0499 | 0.066 | 0.0865 | 0.114 | – | –
in chloroform | 0.123 | 0.142 | 0.165 | 0.197 | 0.23 | 0.269 | 0.306 | – | –
in ethanol | 0.0335 | 0.0461 | 0.0637 | 0.0842 | 0.11 | 0.15 | 0.198 | 0.267 | –
in isopropanol | 0.011 | 0.0136 | 0.0178 | 0.0236 | 0.0312 | 0.0411 | 0.0536 | 0.0696 | 0.0898
in methanol | 0.127 | 0.157 | 0.187 | 0.219 | 0.259 | 0.3 | 0.347 | 0.403 | –
in n-butanol | 0.0187 | 0.0231 | 0.0296 | 0.0371 | 0.0476 | 0.0582 | 0.0713 | 0.0885 | 0.108
in toluene | 0.0156 | 0.0195 | 0.0244 | 0.03 | 0.038 | 0.0487 | 0.0599 | 0.075 | 0.0932

— BigSolDB 2.1
